In patent US12590091B2, “1H-pyrrolo[3,2-C]pyridine and 1H-pyrrolo[2,3-C]pyridine derivatives as TLR9 inhibitors for the treatment of fibrosis” (BRISTOL-MYERS SQUIBB COMPANY, priority 2020, dated 2026):

The compounds below were run against T1, human TLR7 (Homo sapiens, UniProt Q9NYK1) (assay: TLR7 inhibition reporter assay (HEK-Blue cells, SEAP reporter)). Details: HEK-Blue cells overexpressing human TLR7, stimulated with gardiquimod 7.5 μM, 22 hour incubation.
T1 construct: host or cells: HEK-Blue cells
T1 sequence (Q9NYK1 27-1049): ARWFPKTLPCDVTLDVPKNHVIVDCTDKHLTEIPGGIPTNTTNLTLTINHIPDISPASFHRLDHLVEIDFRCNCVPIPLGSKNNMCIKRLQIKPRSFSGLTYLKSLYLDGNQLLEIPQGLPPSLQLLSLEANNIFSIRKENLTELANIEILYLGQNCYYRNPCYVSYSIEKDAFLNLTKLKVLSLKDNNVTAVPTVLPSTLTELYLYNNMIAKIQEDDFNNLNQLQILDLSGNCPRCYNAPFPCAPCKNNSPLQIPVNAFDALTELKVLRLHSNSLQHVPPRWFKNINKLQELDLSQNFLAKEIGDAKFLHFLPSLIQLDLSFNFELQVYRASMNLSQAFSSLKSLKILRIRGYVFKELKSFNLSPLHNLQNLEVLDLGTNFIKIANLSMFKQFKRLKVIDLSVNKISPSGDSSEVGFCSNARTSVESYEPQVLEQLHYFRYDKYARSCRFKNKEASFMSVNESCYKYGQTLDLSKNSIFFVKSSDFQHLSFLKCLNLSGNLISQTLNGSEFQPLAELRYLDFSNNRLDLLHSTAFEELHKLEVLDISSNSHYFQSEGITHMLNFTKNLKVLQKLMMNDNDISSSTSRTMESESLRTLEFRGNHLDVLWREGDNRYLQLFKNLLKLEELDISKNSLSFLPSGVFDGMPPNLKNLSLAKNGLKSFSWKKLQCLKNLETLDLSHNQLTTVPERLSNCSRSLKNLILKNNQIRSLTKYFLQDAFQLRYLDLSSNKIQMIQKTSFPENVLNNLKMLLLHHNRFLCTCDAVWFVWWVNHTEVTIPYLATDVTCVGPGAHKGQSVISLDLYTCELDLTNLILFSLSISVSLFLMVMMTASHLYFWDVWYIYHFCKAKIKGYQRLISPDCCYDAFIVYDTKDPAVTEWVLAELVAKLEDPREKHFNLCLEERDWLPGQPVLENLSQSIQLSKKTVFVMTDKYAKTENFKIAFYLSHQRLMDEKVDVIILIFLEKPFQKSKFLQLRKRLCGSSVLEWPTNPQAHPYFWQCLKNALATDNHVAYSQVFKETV
Assay type: cell-based
Outline: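 HEK-Blue cells overexpressing human TLR7, TLR8 or TLR9 carry a SEAP reporter driven by NF-κB/AP-1 sites. Compounds (0.05 nM–50 μM) were preincubated 30 min at room temperature, then cells were stimulated with gardiquimod 7.5 μM (TLR7), R848 15.9 μM (TLR8) or ODN2006 5 nM (TLR9) for 22 h at 37 °C.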

Compound | IC50
Cc1nc(-c2ccc(CN3CCN(CCC(C)(C)O)CC3)cc2)cc2c1cc(-c1ccc(S(C)(=O)=O)cc1)n2C1CC1 [Example 116, 4-[4-[[4-[1-cyclopropyl-4-methyl-2-(4-methylsulfonylphenyl)pyrrolo[3,2-c]pyridin-6-yl]phenyl]methyl]piperazin-1-yl]-2-methyl-butan-2-ol] | 3.2 µM
CC(C)N1CCN(c2ccc(-c3cc4c(cc(-c5ccc(S(C)(=O)=O)cc5)n4C)c(C(C)(C)O)n3)cc2)CC1 [Example 118, 2-[6-[4-(4-isopropylpiperazin-1-yl)phenyl]-1-methyl-2-(4-methylsulfonylphenyl)pyrrolo[3,2-c]pyridin-4-yl]propan-2-ol] | 1.7 µM
CC(C)(O)CN1C2CCC1CN(Cc1ccc(-c3cc4c(cn3)cc(-c3ccc(S(C)(=O)=O)cc3)n4C3CC3)cc1)C2 [Example 121, 1-[3-[[4-[1-cyclopropyl-2-(4-methylsulfonylphenyl)pyrrolo[3,2-c]pyridin-6-yl]phenyl]methyl]-3,8-diazabicyclo[3.2.1]octan-8-yl]-2-methyl-propan-2-ol] | 0.6 µM
Cc1nc(-c2ccc(CN3CCN(CC(C)(C)O)CC3)cc2)cc2c1c(F)c(-c1ccc(S(C)(=O)=O)cc1)n2C [Example 122, 1-(4-(4-(3-fluoro-1,4-dimethyl-2-(4-(methylsulfonyl)phenyl)-1H-pyrrolo[3,2-c]pyridin-6-yl)benzyl)piperazin-1-yl)-2-methylpropan-2-ol] | 17.1 µM
Cc1nc(-c2ccc(CN3CCN(CC(C)(C)O)CC3)cc2)cc2c1cc(-c1ccc(S(C)(=O)=O)cc1)n2C1CC1 [Example 123, 1-(4-(4-(1-cyclopropyl-4-methyl-2-(4-(methylsulfonyl)phenyl)-1H-pyrrolo[3,2-c]pyridin-6-yl)benzyl)piperazin-1-yl)-2-methylpropan-2-ol] | 3.7 µM
Cc1nc(-c2ccc(CN3CCN(CC(C)(C)O)CC3)cc2)cc2c1cc(-c1ccc(S(C)(=O)=O)cc1)n2C(F)F [Example 124, 1-(4-(4-(1-(difluoromethyl)-4-methyl-2-(4-(methylsulfonyl)phenyl)-1H-pyrrolo[3,2-c]pyridin-6-yl)benzyl)piperazin-1-yl)-2-methylpropan-2-ol] | > 50 µM

Now from value to compound:

IC50 | Compound
3.1 µM | CC(C)N1CCN(Cc2ccc(-c3cc4c(cc(-c5ccc(S(C)(=O)=O)cc5)n4C)c(C(C)(C)O)n3)cc2)CC1 [Example 125, 2-(6-(4-((4-isopropylpiperazin-1-yl)methyl)phenyl)-1-methyl-2-(4-(methylsulfonyl)phenyl)-1H-pyrrolo[3,2-c]pyridin-4-yl)propan-2-ol]
2.8 µM | CC(C)(O)CN1CCN(Cc2ccc(-c3cc4c(cn3)cc(-c3ccc(S(C)(=O)=O)cc3)n4C3CC3)cc2)CC1 [Example 128, 1-(4-(4-(1-cyclopropyl-2-(4-(methylsulfonyl)phenyl)-1H-pyrrolo[3,2-c]pyridin-6-yl)benzyl)piperazin-1-yl)-2-methylpropan-2-ol]
3.6 µM | CC(C)(O)CCN1CCN(Cc2ccc(-c3cc4c(cn3)cc(-c3ccc(S(C)(=O)=O)cc3)n4C3CC3)cc2)CC1 [Example 129, 4-(4-(4-(1-cyclopropyl-2-(4-(methylsulfonyl)phenyl)-1H-pyrrolo[3,2-c]pyridin-6-yl)benzyl)piperazin-1-yl)-2-methylbutan-2-ol]
1.9 µM | CC(C)(O)CN1CC2CCC(C1)N2Cc1ccc(-c2cc3c(cn2)cc(-c2ccc(S(C)(=O)=O)cc2)n3C2CC2)cc1 [Example 130, 1-(8-(4-(1-cyclopropyl-2-(4-(methylsulfonyl)phenyl)-1H-pyrrolo[3,2-c]pyridin-6-yl)benzyl)-3,8-diazabicyclo[3.2.1]octan-3-yl)-2-methylpropan-2-ol]
